Test results published in patent publication US20070160684A1, “Methods for increasing cancer cell chemosensitivity” (priority 2005, published 2007).

Key:
[1] = system: Pa-4 cells; details: 4 mM caffeine or 1 μM Dox
[2] = system: topo IIα; experiment: Western analysis of steady-state topo II levels in HS578T cells; type: cell-based; details: 1 μM Dox, various time points
Procedure: HS578T cells were treated with 1 μM Dox, and at various time points cell lysates were removed and subjected to Western analyses using monoclonal anti-topo IIα antibody (BD Biosciences, San Jose, Calif.). Control Western analyses were performed using monoclonal anti-actin antibodies.

[3] = system: DNA-PKcs pT2609 and pS2056; experiment: Western analysis of DNA-PKcs phosphorylation; type: cell-based
Procedure: Dox treatment has been reported to lead to rapid and transient phosphorylation of DNA-PKcs at Thr-2609 (pT2609) and Ser-2056 (pS2056), respectively (Chen 2005). Equal amounts of protein lysates from HeLa and HeLa/HMGA2 cells were treated with 2 μM or 5 μM Dox, then subjected to Western analyses using polyclonal anti-phospho-DNA-PKcs-T2609/S2056 (Dr. David Chen, Univ. of Texas Southwestern Medical Center) and monoclonal anti-DNA-PKcs antibodies (Santa Cruz, Calif.). Control lysates were treated with vehicle only. Untreated and Dox-treated MO59K (DNA-PKcs proficient) and MO59J (DNA-PKcs deficient) cells were used as an additional control to assure antibody specificity.
To confirm that HMGA2 expression is at least in part responsible for sustained DNA-PKcs pT2609 and pS2056 signals following Dox exposure, siRNA was utilized to downregulate endogenous HMGA2 expression in Hs578T cells. siRNA against HMGA2 (si-HMGA2) was described previously (Boo 2005). The sense and antisense were annealed to a working concentration of 20 μM by incubation with annealing buffer (5×: 30 mM HEPES pH 7.4, 100 mM potassium acetate, 2 mM magnesium acetate) at 90° C. for one minute followed by incubation at 37° C. for one hour. The annealed siRNA was stored at −20° C. Transfection of siRNA was performed with GeneEraser (Stratagene, Calif.) according to manufacturer's instruction. Briefly, cells were seeded to a confluency of 50% on the day of transfection. GeneEraser was pre-incubated at room temperature in serum-free medium ten minutes before the addition of siRNA. The GeneEraser/si-HMGA2 solution was then incubated at room temperature for an additional 15 minutes before addition to cells in a serum-containing medium. The cells were allowed to incubate for various time periods without any medium change post-transfection. Control cells were transfected with a scrambled siRNA. Cells were treated with Dox 48 hours after transfection.

[4] = system: ATM-deficient pEBS7 cells and ATM-proficient YZ5 cells; experiment: MTT cell viability assay; type: cell-based; details: Dox 0-1 μM
[5] = system: Pa-4/HMGA2 cells; experiment: FACS analysis after caffeine and Dox (G2/M, sub-G1); type: cell-based; details: 4 mM caffeine or 1 μM Dox
Procedure: Pa-4 and Pa-4/HMGA2 cells were seeded at 50-80% confluency in 35 mm dishes and serum starved overnight to synchronize cell cycle. […] Following treatment, cells were fixed in 70% ethanol overnight, stained with 20 μg/ml propidium iodide, and subjected to FACS analysis.
Apoptosis was quantified by assessing sub-G1 cell populations.

[6] = system: Ku70-deficient MEF cells and their wild-type counterparts; experiment: MTT cell viability assay; type: cell-based; details: increasing concentrations, 72 hours
Procedure: To confirm the involvement of DNA-PK in mediating HMGA2 chemosensitization to Dox-induced DNA damage, MTT assays were conducted as described above on Ku70-deficient (Ku70^−/^−) MEF cells and their wild-type counterparts and on DNA-PKcs-deficient MO59J cells and DNA-PKcs-proficient MO59K cells.

[7] = system: Pa-4/HMGA2 cells; experiment: FACS cell cycle analysis (G2/M, sub-G1); type: cell-based
Procedure: (§1) Pa-4 and Pa-4/HMGA2 cells were seeded at 50-80% confluency in 35 mm dishes and serum starved overnight to synchronize cell cycle. Synchronized cells were treated with 1 μM Dox or vehicle for 24 hours, then fixed in 70% ethanol overnight and stained with 20 μg/ml propidium iodide. The percentage of cells in G1 versus G2/M was then determined by FACS analysis at the Norris Cancer Center Flow Cytometry Core Facility using FACSCaliber (Becton Dickinson, Franklin Lakes, N.J.).
(§2) Apoptosis of Pa-4 and Pa-4/HMGA2 cells was quantified by assessing the sub-G, cell population, a hallmark of cell apoptosis. The percentage of […] Pa-4/HMGA2 cells was increased five-fold 24 hours after Dox treatment, versus an increase of only two-fold in Pa-4 cells (FIG. 3A, panel e).

[8] = system: Pa-4 cells; experiment: FACS cell cycle analysis (G2/M, sub-G1); type: cell-based
Procedure: as §1, §2

[9] = system: H2AX phosphorylation; experiment: Western analysis of H2AX phosphorylation in HeLa and HeLa/HMGA2 cells; type: cell-based; details: Dox
Procedure: To ascertain whether HMGA2 effects Dox-induced ATM signaling activation, phosphorylation of ATM Ser1981 and H2AX Ser139 was assayed in the presence and absence of Dox (2 μM in ATM assays, 1 μM in H2AX assays). At various timepoints after Dox treatment, cell lysates were removed and subjected to Western analyses using monoclonal anti-phospho-ATM antibodies (Ser1981), polyclonal anti-ATM antibodies (Santa Cruz Biotechnology, Santa Cruz, Calif.), monoclonal anti-phospho-H2AX antibodies ([…]) (Upstate Cell Signaling), or anti-H2AX antibodies. Control Western analyses were performed using monoclonal anti-actin antibodies. […] HeLa and HeLa/HMGA2 cells
The effect of HMGA2 on ATM and H2AX phosphorylation in HeLa cells was measured using the protocol described above. […] As for H2AX, results were similar to those observed in Pa-4 cells.

[10] = system: HeLa and HeLa/HMGA2 cells; experiment: MTT cell viability assay; type: cell-based; details: Dox 0-1 μM
Description: HS578T, HCC1419, and CHO cells

[11] = 1 μM Dox for 24 hours, synchronized cells

`COc1cccc2c1C(=O)c1c(O)c3c(c(O)c1C2=O)C[C@@](O)(C(=O)CO)C[C@@H]3O[C@H]1C[C@H](N)[C@H](O)[C@H](C)O1` [Dox, doxorubicin] was tested, and the “apoptosis (sub-G1 cell population), single agent” value [1] was “increase in apoptosis”, the “cell cycle distribution / cells in G2/M, single agent” value ([1]; 48 hours) was “greatly increased the number of cells in G2/M phase” and the “steady-state topo II levels” value [2] was “remained comparable over the time course of Dox treatment”. For the same compound, the DNA-PKcs phosphorylation signals ([3]; 2 μM or 5 μM Dox, two hours, HeLa/HMGA2 cells) was “Accumulation of DNA-PKcs phosphorylation signals”, the “DNA-PKcs phosphorylation signals, Hs578T versus HCC1419” value ([3]; increasing concentrations of Dox) was “recapitulated in HMGA2-expressing Hs578T breast cancer cells, but not in HMGA2-underexpressing HCC1419 breast cancer cells” and the “decrease in viability, pEBS7 versus YZ5” value ([4]; 72 hours) was “less pronounced in the ATM-negative pEBS7 cells”. The cell viability ([4]; 72 hours after treatment) was “decreased cell viability in both cell types in a dose-dependent manner”, the “apoptosis (sub-G1 cell population), single agent” value [5] was “substantially larger increase in Pa-4/HMGA2 cells” and the “cell cycle distribution / cells in G2/M, single agent” value ([5]; 48 hours) was “greatly increased the number of cells in G2/M phase”. The “viability, Ku70-deficient versus wild type” value [6] was “marked decrease in viability”, the “percentage of cells in G2/M phase” value [7, 11] was 62.6% and the “increase in apoptosis (sub-G1 cell population)” value ([7]; 24 hours after Dox treatment) was “five-fold”. For the same compound, the “percentage of cells in G2/M phase” value [8, 11] was 50.9%, the “increase in apoptosis (sub-G1 cell population)” value ([8]; 24 hours after Dox treatment) was “two-fold” and the “induction of H2AX phosphorylation” value [9] was “ablation of Dox-mediated induction of phosphorylation”. The “cell viability, HeLa/HMGA2 versus HeLa” value [10] was “HMGA2 expression enhancing the chemosensitivity of cells to Dox”.
